Consider 6 compounds from US20220235049A1, “SUBSTITUTED PYRROLO [2, 3-b] PYRIDINE AND PYRAZOLO [3,4-b] PYRIDINE DERIVATIVES AS PROTEIN KINASE INHIBITORS” (Fochon Pharmaceuticals, Ltd., priority 2019, published 2022).

Like-named read-outs stand apart in the source and are kept apart here.

For one data set, the target named is T1, BTK (C481S) (Homo sapiens, UniProt Q06187, C481S).
T1 construct: purchased SignalChem B10-12CH
Nature of the data set: Kinase assay of BTK (C481S), [33P]-ATP filter-binding, at Reaction Biology Corporation. It counts as biochemical. To be noted: 10 μM ATP, 20 min preincubation, 120 min reaction. The protocol: The kinase activity of BTK (C481S) was assayed at Reaction Biology Corporation. The substrate in the BTK (C481S) reaction, pEY (poly[Glu:Tyr] (4:1)) (Sigma, Cat. #P7244-250MG), was prepared in fresh reaction buffer (20 mM Hepes (pH 7.5), 10 mM MgCl2, 1 mM EGTA, 0.02% Brij35, 0.02 mg/ml BSA, 0.1 mM Na3VO4, 2 mM DTT, 1% DMSO). BTK(C481S) (SignalChem, Cat. #B10-12CH) was delivered into the substrate solution and mixed gently. The final concentrations of BTK (C481S) and the substrate in the reaction mixture were 6 nM and 0.2 mg/ml, respectively. Compounds were tested in 10-point concentration/response mode with 3-fold serial dilution steps starting at 1 μM.
Compounds in 100% DMSO were delivered into the kinase reaction mixture by acoustic liquid delivery technology (Echo550; nanoliter range) and incubated for 20 min at room temperature. 10 μM [^33P]-ATP (ATP: Sigma, Cat #: A7699; [^33P]-ATP: Hartmann Analytic, Cat #: SCF-301-12) was delivered into the reaction mixture to initiate the reaction. The mixture was incubated for 120 min at room temperature. Radioactivity was detected utilizing a proprietary filter-binding method. Kinase activity data were expressed as the percent remaining kinase activity in test samples compared to vehicle (DMSO) reactions. IC50 values were obtained using GraphPad Prism software.
Select compounds prepared as described above were assayed according to the biological procedures described herein.

The test system of another data set is DOHH2 cells. Nature of the data set: Cell proliferation assay in DOHH2 cells (MTS). Particulars: Homo sapiens, DOHH-2, 120 h. The format is cell-based. An outline of the steps: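 DOHH2 cells at 5000/well were treated with compound at 1.5–10000 nM for 120 h at 37 °C, as a proxy for BTK inhibition. Proliferation was read by MTS for 2 h, stopped with SDS, and absorbance measured at 490 nm with 650 nm reference; IC50 was fitted from the curve.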

A short description of data set [1]: Pharmacokinetics in male Sprague-Dawley rats. It counts as in vivo. Particulars: rat; for Cmax: read-out: Cmax/C0; for MRT last: read-out: MRT0-t. As to the method: The purpose of this study was to determine the pharmacokinetics of Example 71 and Example 75 in male Sprague-Dawley rats (Supplied by Beijing Vital River Laboratory Animal Technology Co., Ltd.).
Animals in Group 1 were administered with Example 71 by single intravenous bolus injection at 1 mg/kg, which was formulated in 60% Phosal 50 PG (Lipoid, Batch #368315-3180028/009): 30% PEG400 (Sigma, Batch #MKCH6281): 10% Ethanol (Merck, Batch #K48244883634) at 1 mg/mL as a solution. Animals in Group 2 were administered with Example 71 by single oral gavage (PO) administration at 5 mg/kg, which was formulated in 60% Phosal 50 PG (Lipoid, Batch #368315-3180028/009): 30% PEG400 (Sigma, Batch #MKCH6281): 10% Ethanol (Merck, Batch #K48244883634) at 1 mg/mL as a solution. Blood samples were collected at 0.083, 0.25, 0.5, 1, 2, 4, 8, 12 and 24 hours post-dose. Concentrations of Example 71 in plasma were determined by LC/MS/MS (LC: Waters UPLC; MS: API4000).
Animals in Group 3 were administered with Example 75 by single intravenous bolus injection at 2 mg/kg, which was formulated in 10% DMSO (Sigma, Batch #LPC0S181): 60% PEG400 (Sigma, Batch #MKCH6281): 30% water at 2 mg/mL as a solution. Animals in Group 4 were administered with Example 75 by single oral gavage (PO) administration at 10 mg/kg, which was formulated in 10% DMSO (Sigma, Batch #LPC0S181): 60% PEG400 (Sigma, Batch #MKCH6281): 30% water at 2 mg/mL as a solution. Blood samples were collected at 0.083, 0.25, 0.5, 1, 2, 4, 8, 12 and 24 hours post-dose. Concentrations of Example 75 in plasma were determined by LC/MS/MS (LC: Waters UPLC; MS: Triple Quad 6500 plus).

The mark [2] stands for this setting: male, Sprague-Dawley, plasma, iv, 1 mg/kg.
The mark [3] stands for this setting: male, Sprague-Dawley, plasma, po, 5 mg/kg.

T1 sequence (Q06187 whole entry C481S): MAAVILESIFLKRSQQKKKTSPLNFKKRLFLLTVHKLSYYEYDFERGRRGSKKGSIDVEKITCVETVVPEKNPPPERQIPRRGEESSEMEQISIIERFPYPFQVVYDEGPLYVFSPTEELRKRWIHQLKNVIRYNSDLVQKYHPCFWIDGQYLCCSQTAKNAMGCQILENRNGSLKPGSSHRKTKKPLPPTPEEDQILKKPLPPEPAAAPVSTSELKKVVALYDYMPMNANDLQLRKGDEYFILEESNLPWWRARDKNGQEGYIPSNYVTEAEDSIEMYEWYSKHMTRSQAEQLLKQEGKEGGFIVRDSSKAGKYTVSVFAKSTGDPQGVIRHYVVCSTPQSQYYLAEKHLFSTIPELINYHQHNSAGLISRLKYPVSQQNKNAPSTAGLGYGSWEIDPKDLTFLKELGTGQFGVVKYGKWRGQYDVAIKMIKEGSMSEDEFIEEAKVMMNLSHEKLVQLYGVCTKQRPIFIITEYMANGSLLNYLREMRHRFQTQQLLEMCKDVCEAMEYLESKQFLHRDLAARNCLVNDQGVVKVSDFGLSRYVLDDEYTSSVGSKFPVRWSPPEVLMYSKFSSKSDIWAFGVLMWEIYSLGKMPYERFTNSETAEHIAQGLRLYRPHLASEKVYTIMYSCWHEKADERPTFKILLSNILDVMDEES

For `COc1cnc2[nH]cc(C(=O)c3ccc(Oc4ccccc4)cc3Cl)c2c1N[C@@H]1CC[C@@H](CO)OC1` [Example 27, (2-chloro-4-phenoxyphenyl)(4-(((3R,6S)-6-(hydroxymethyl)tetrahydro-2H-pyran-3-yl)amino)-5-methoxy-1H-pyrrolo[2,3-b]pyridin-3-yl)methanone], the IC50 at BTK (C481S) turned out to be 1.12 nM; in the data set on DOHH2 cells, 1 nM.

Regarding `CCOc1cnc2[nH]cc(C(=O)c3ccc(Oc4ccccc4F)cc3)c2c1N[C@@H]1CC[C@@H](CO)OC1` [Example 63, (5-ethoxy-4-(((3R,6S)-6-(hydroxymethyl)tetrahydro-2H-pyran-3-yl)amino)-1H-pyrrolo[2,3-b]pyridin-3-yl)(4-(2-fluorophenoxy)phenyl)methanone], the IC50 on BTK (C481S) and in the data set on DOHH2 cells was 1 nM in each case.

In the case of `CCOc1cnc2[nH]cc(C(=O)c3ccc(Oc4ccccc4F)cc3F)c2c1N[C@@H]1CC[C@@H](CO)OC1` [Example 71, (5-ethoxy-4-(((3R,6S)-6-(hydroxymethyl)tetrahydro-2H-pyran-3-yl)amino)-1H-pyrrolo[2,3-b]pyridin-3-yl)(2-fluoro-4-(2-fluorophenoxy)phenyl)methanone], on BTK (C481S), the IC50 stood at 0.77 nM. Also, in the data set on DOHH2 cells, the IC50 came to 1 nM. In addition, in data set [1] (setting [2]), the AUC(0-inf) came to 3770 ng·h/mL, the AUC(0-t) was 3760 ng·h/mL, the clearance turned out to be 4.7 mL/min/kg and the half-life is 3.07 h. Besides, in data set [1] (setting [2]), the Cmax was found to be 4360 ng/mL and the MRT last amounted to 1.93 h. Besides, the Vd in data set [1] (male, Sprague-Dawley, plasma, iv, 1 mg/kg, read-out: Vdss) is 0.541 L/kg. In data set [1] (setting [3]), the AUC(0-inf) was determined as 10100 ng·h/mL, the AUC(0-t) was 10100 ng·h/mL, the Tmax came out at 4 h and the half-life was 2.74 h. In addition, in data set [1] (setting [3]), the Cmax is 1680 ng/mL and the MRT last worked out at 5.26 h. In data set [1] (po 5 mg/kg vs iv 1 mg/kg), this compound showed an F of 53.7%.

For the compound `CCOc1cnc2[nH]cc(C(=O)c3ccc(Oc4ccccc4)cc3C)c2c1N[C@@H]1CC[C@@H](CO)OC1` [Example 127, (5-ethoxy-4-(((3R,6S)-6-(hydroxymethyl)tetrahydro-2H-pyran-3-yl)amino)-1H-pyrrolo[2,3-b]pyridin-3-yl)(2-methyl-4-phenoxyphenyl)methanone], the values for the IC50 at BTK (C481S) and in the data set with DOHH2 cells were 0.959 nM and 1 nM, respectively.

On to `CCOc1cnc2[nH]cc(C(=O)c3ccc(Oc4ccccc4)cc3Cl)c2c1N[C@@H]1CC[C@@H](CO)OC1` [Example 128, (2-chloro-4-phenoxyphenyl)(5-ethoxy-4-(((3R,6S)-6-(hydroxymethyl)tetrahydro-2H-pyran-3-yl)amino)-1H-pyrrolo[2,3-b]pyridin-3-yl)methanone], for which the IC50 amounted to 0.972 nM on BTK (C481S) and 1 nM in the data set on DOHH2 cells.

In the case of `CCOc1cnc2[nH]cc(C(=O)c3ccc(Oc4ccccc4)cc3F)c2c1N[C@@H]1CC[C@@H](CO)OC1` [Example 176, (5-ethoxy-4-(((3R,6S)-6-(hydroxymethyl)tetrahydro-2H-pyran-3-yl)amino)-1H-pyrrolo[2,3-b]pyridin-3-yl)(2-fluoro-4-phenoxyphenyl)methanone], the IC50 is 0.455 nM at BTK (C481S) and 1 nM in the data set with DOHH2 cells.
